Target: T1, ERR1 (also known as ERR-α or ERR-1) (Homo sapiens, UniProt P11474)
T1 sequence (P11474 193-421 limits assumed): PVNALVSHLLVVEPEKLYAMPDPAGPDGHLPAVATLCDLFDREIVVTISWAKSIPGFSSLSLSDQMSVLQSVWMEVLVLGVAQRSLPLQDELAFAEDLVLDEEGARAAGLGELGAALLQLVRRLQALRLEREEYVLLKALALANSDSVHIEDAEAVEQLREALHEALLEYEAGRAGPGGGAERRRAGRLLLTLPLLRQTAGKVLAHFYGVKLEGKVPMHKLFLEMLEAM
Assay: TR-FRET assay (disruption of co-activator peptide binding to ERR1 LBD)
Assay type: biochemical
Details: 6 nM 6His-ERR1LBD, 6 nM GST-SRC-2 peptide; average of 3 independent experiments
Outline: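 His-tagged ERR1 ligand-binding domain and GST-labelled SRC-2 peptide, each 6 nM, equilibrated at 25° C for 4-18 h in Tris pH 8/Hepes/KCl/DTT/delipidated BSA buffer. Compound-induced loss of co-activator binding read as Eu cryptate→XL665 energy transfer; values from hyperbolic curve fits averaged over 3 independent runs.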

Row | Compound | EC50 [nM]
1 | Cc1nn(Cc2ccc(Cl)cc2C(F)(F)F)c2ccc(/C=C3\SC(=O)N([C@@H]4CCNC[C@H]4F)C3=O)cc12 (relative stereo) [Compound 333, (5Z)-5-({1-[4-Chloro-2-(trifluoromethyl)benzyl]-3-methyl-1H-indazol-5-yl}methylidene)-3-[trans-3-fluoropiperidin-4-yl]-1,3-thiazolidine-2,4-dione] | 48
2 | COC(=O)C(C1CCOCC1)N1C(=O)S/C(=C\c2ccc3c(cnn3Cc3ccc(Cl)cc3C(F)(F)F)c2)C1=O (centres unmarked) [Compound 209, Methyl [(5Z)-5-({1-[4-chloro-2-(trifluoromethyl)benzyl]-1H-indazol-5-yl}methylidene)-2,4-dioxo-1,3-thiazolidin-3-yl](tetrahydro-2H-pyran-4-yl)acetate] | 87
3 | CN1CCC[C@H]1CN1C(=O)S/C(=C\c2ccc3c(cnn3Cc3ccc(C(F)(F)F)cc3C(F)(F)F)c2)C1=O [Compound 69, (5Z)-5-({1-[2,4-Bis(trifluoromethyl)benzyl]-1H-indazol-5-yl}methylidene)-3-{[(2S)-1-methylpyrrolidin-2-yl]methyl}-1,3-thiazolidine-2,4-dione] | 23
4 | O=C1S/C(=C\c2ccc3c(cnn3Cc3ccc(Cl)cc3C(F)(F)F)c2)C(=O)N1[C@H]1CCNC[C@H]1F (relative stereo) [Compound 201, (5Z)-5-({1-[4-Chloro-2-(trifluoromethyl)benzyl]-1H-indazol-5-yl}methylidene)-3-(cis-3-fluoropiperidin-4-yl)-1,3-thiazolidine-2,4-dione] | 61
5 | NC1(CN2C(=O)S/C(=C\c3ccc4c(cnn4Cc4ccc(Cl)cc4C(F)(F)F)c3)C2=O)CCC1 [Compound 314, (5Z)-3-[(1-Aminocyclobutyl)methyl]-5-({1-[4-chloro-2-(trifluoromethyl)benzyl]-1H-indazol-5-yl}methylidene)-1,3-thiazolidine-2,4-dione] | 830
6 | O=C1S/C(=C\c2ccc3c(cnn3Cc3ccc(Cl)cc3C(F)(F)F)c2)C(=O)N1CCn1ccnc1 [Compound 296, (5Z)-5-({1-[4-Chloro-2-(trifluoromethyl)benzyl]-1H-indazol-5-yl}methylidene)-3-[2-(1H-imidazol-1-yl)ethyl]-1,3-thiazolidine-2,4-dione] | 17
7 | O=C(O)CN1C(=O)S/C(=C\c2ccc3c(ccn3Cc3ccc(Cl)cc3C(F)(F)F)c2)C1=O [Compound 253, [(5Z)-5-({1-[4-Chloro-2-(trifluoromethyl)benzyl]-1H-indol-5-yl}methylidene)-2,4-dioxo-1,3-thiazolidin-3-yl]acetic acid] | 120
8 | COc1ccc(Cn2ncc3cc(/C=C4\SC(=O)N(CCCN(C)C)C4=O)ccc32)c(C(F)(F)F)c1 [Compound 10, (5Z)-3-[3-(Dimethylamino)propyl]-5-[(1-{[4-(methyloxy)-2-(trifluoromethyl)phenyl]-methyl}-1H-indazol-5-yl)methylidene]-1,3-thiazolidine-2,4-dione] | 8
9 | O=C1S/C(=C\c2ccc3c(cnn3Cc3ccc(Cl)cc3C(F)(F)F)c2)C(=O)N1N1CCOCC1 [Compound 359, (5Z)-5-({1-[4-Chloro-2-(trifluoromethyl)benzyl]-1H-indazol-5-yl}methylidene)-3-morpholin-4-yl-1,3-thiazolidine-2,4-dione] | 26
10 | O=C1S/C(=C\c2ccc3c(cnn3Cc3ccc(Cl)cc3C(F)(F)F)c2)C(=O)N1CCNc1ccc([N+](=O)[O-])cn1 [Compound 110, (5Z)-5-({1-[4-Chloro-2-(trifluoromethyl)benzyl]-1H-indazol-5-yl}methylidene)-3-{2-[(5-nitropyridin-2-yl)amino]ethyl}-1,3-thiazolidine-2,4-dione] | 438
11 | NC(CN1C(=O)S/C(=C\c2ccc3c(cnn3Cc3ccc(Cl)cc3C(F)(F)F)c2)C1=O)C(F)(F)F (centres unmarked) [Compound 169, (5Z)-3-(2-Amino-3,3,3-trifluoropropyl)-5-({1-[4-chloro-2-(trifluoromethyl)benzyl]-1H-indazol-5-yl}methylidene)-1,3-thiazolidine-2,4-dione] | 32

— patent publication US8796256B2 (Janssen Pharmaceutica NV, priority 2010, dated 2014)
